Experimental data reported in PubChem BioAssay AID256 (DTP/NCI, 2004).
Where “and” joins values, the source holds several entries; their conditions need not be identical. Identical values can stand only once. Toxic doses and inconclusive results are not listed. The calls were made as follows: active = survival T/C of 150% or more; inactive = T/C below 125% in these data.

System: CD2F1 mice, L1210 leukemia ip, survival T/C
Assay: NCI In Vivo Anticancer Drug Screen. Data for tumor model L1210 Leukemia (intraperitoneal) in CD2F1 (CDF1) mice
Conditions: endpoint: mean survival time, higher = longer survival
Method in brief: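 In this screen, transplantable tumors were grown in mice given either the compound or its vehicle. Results were expressed as the treated measurement relative to the control measurement.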

[1] = dose: 100.0 mg/kg/injection, schedule: Q01DX001 (ip), vehicle: saline with Tween-80
[2] = dose: 200.0 mg/kg/injection, schedule: Q01DX001 (ip), vehicle: saline with Tween-80
[3] = dose: 400.0 mg/kg/injection, schedule: Q01DX001 (ip), vehicle: saline with Tween-80
[4] = dose: 100.0 mg/kg/injection, schedule: Q04DX003 (ip), vehicle: saline with Tween-80
[5] = dose: 200.0 mg/kg/injection, schedule: Q04DX003 (ip), vehicle: saline with Tween-80
[6] = dose: 400.0 mg/kg/injection, schedule: Q04DX003 (ip), vehicle: saline with Tween-80
[7] = dose: 50.0 mg/kg/injection, schedule: Q01DX009 (ip), vehicle: saline with Tween-80
[8] = dose: 100.0 mg/kg/injection, schedule: Q01DX009 (ip), vehicle: saline with Tween-80
[9] = dose: 25.0 mg/kg/injection, schedule: Q04DX002 (ip), vehicle: saline with Tween-80
[10] = dose: 50.0 mg/kg/injection, schedule: Q04DX002 (ip), vehicle: saline with Tween-80
[11] = dose: 100.0 mg/kg/injection, schedule: Q04DX002 (ip), vehicle: saline with Tween-80
[12] = dose: 200.0 mg/kg/injection, schedule: Q04DX002 (ip), vehicle: saline with Tween-80
[13] = dose: 400.0 mg/kg/injection, schedule: Q04DX002 (ip), vehicle: saline with Tween-80

Measured: T/C

COc1cc2c(c(OC)c1O)-c1ccc(OC)c(=O)cc1[C@@H](NC(C)=O)CC2
inactive: dose: 1.25 mg/kg/injection, schedule: Q01DX005 (ip), vehicle: Klucel (hydroxypropylcellulose) (HPC) 103 % of control | dose: 2.5 mg/kg/injection, schedule: Q01DX005 (ip), vehicle: Klucel (hydroxypropylcellulose) (HPC) 104 % of control | dose: 3.12 mg/kg/injection, schedule: Q01DX009 (ip), vehicle: saline 118 % of control | dose: 5.0 mg/kg/injection, schedule: Q01DX005 (ip), vehicle: Klucel (hydroxypropylcellulose) (HPC) 110 % of control | dose: 20.0 mg/kg/injection, schedule: Q01DX005 (ip), vehicle: Klucel (hydroxypropylcellulose) (HPC) 121 % of control | dose: 40.0 mg/kg/injection, schedule: Q01DX005 (ip), vehicle: Klucel (hydroxypropylcellulose) (HPC) 110 % of control

COC1OC(CCl)C(Cl)C(OC)C1OC (configuration not stated)
inactive: [1] 96 % of control | [2] 91 % of control | [3] 87 % of control

CC(CO)CCC1OC2CC3C4CCC5CC(O)CCC5(C)C4CCC3(C)C2C1C (configuration not stated)
inactive: [1] 95 % of control | [2] 94 % of control

COc1cc(-c2ccc(N=Nc3c(O)ccc4ccccc34)c(OC)c2)ccc1N=Nc1ccc2c(S(=O)(=O)O)cc(S(=O)(=O)O)c(N)c2c1O
inactive: dose: 50.0 mg/kg/injection, schedule: Q01DX001 (ip), vehicle: saline 91 % of control | dose: 100.0 mg/kg/injection, schedule: Q01DX001 (ip), vehicle: saline 94 % of control | dose: 100.0 mg/kg/injection, schedule: Q04DX003 (ip), vehicle: saline 94 % of control | dose: 200.0 mg/kg/injection, schedule: Q01DX001 (ip), vehicle: saline 88 % of control | dose: 200.0 mg/kg/injection, schedule: Q04DX003 (ip), vehicle: saline 95 % of control | dose: 400.0 mg/kg/injection, schedule: Q01DX001 (ip), vehicle: saline 94 % of control

Cc1ccc(N=C=C(c2ccccc2)c2ccccc2)cc1
inactive: [4] 94 % of control | [5] 97 % of control | [6] 94 % of control

CCOC(=O)CCC(NC(=O)c1ccccc1NC)C(=O)OCC (configuration not stated)
inactive: [4] 101 % of control | [5] 101 % of control | [6] 103 % of control

CNC(=O)OCc1c(COC(=O)NC)c(-c2ccc(F)cc2)n2c1CCC2
inactive: dose: 3.13 mg/kg/injection, schedule: Q01DX009 (ip), vehicle: Klucel (hydroxypropylcellulose) (HPC) 115 % of control | dose: 6.25 mg/kg/injection, schedule: Q01DX009 (ip), vehicle: Klucel (hydroxypropylcellulose) (HPC) 107 % of control | dose: 12.5 mg/kg/injection, schedule: Q01DX009 (ip), vehicle: Klucel (hydroxypropylcellulose) (HPC) 118 % of control

CCCCCCCCCCCCCCCC(O)S(=O)(=O)O (configuration not stated)
inactive: [7] 93 % of control | [8] 94 % of control

CCCCCCC(C)(O)CCCCCC
inactive: [1] 93 % of control | [2] 96 % of control | [3] 101 % of control

CCCCCCCCCCCCCCC(=O)Nc1ccccc1
inactive: dose: 12.5 mg/kg/injection, schedule: Q04DX002 (ip), vehicle: saline with Tween-80 101 % of control | [9] 96 % of control | [10] 86 % of control | [2] 89 % of control

O=C(Nc1c[nH]c(=O)[nH]c1=O)C(Cl)Cl
inactive: dose: 100.0 mg/kg/injection, schedule: Q04DX003 (ip), vehicle: other 109 % of control | dose: 200.0 mg/kg/injection, schedule: Q04DX003 (ip), vehicle: other 94 % of control

C[Si](C)(C)CS(=O)[O-].[C-]#[O+].[C-]#[O+].[Fe+6].[c-]1[c-][c-][cH-][c-]1
inactive: dose: 12.5 mg/kg/injection, schedule: Q04DX002 (ip), vehicle: saline 105 % of control | dose: 25.0 mg/kg/injection, schedule: Q04DX002 (ip), vehicle: saline 94 % of control | dose: 50.0 mg/kg/injection, schedule: Q04DX002 (ip), vehicle: saline 87 % of control

CC(C)(C)C1CCS(=O)(=O)CC1.[Cl][Hg][Cl]
inactive: dose: 0.25 mg/kg/injection, schedule: Q04DX003 (ip), vehicle: saline 104 % of control | dose: 0.5 mg/kg/injection, schedule: Q04DX003 (ip), vehicle: saline 94 % of control | dose: 1.0 mg/kg/injection, schedule: Q04DX003 (ip), vehicle: saline 100 % of control

O=[N+]([O-])/C=C/c1cc2ccccc2[nH]1
inactive: dose: 100.0 mg/kg/injection, schedule: Q04DX003 (ip), vehicle: acetone 94 % of control | dose: 200.0 mg/kg/injection, schedule: Q04DX003 (ip), vehicle: acetone 94 % of control | dose: 400.0 mg/kg/injection, schedule: Q04DX003 (ip), vehicle: acetone 105 % of control

O=C(O)c1ccc(Cl)cc1Nc1ccc(O)cc1
inactive: [9] 96 % of control | [10] 116 % of control | [11] 101 % of control and 102 % of control

COC(=O)C=P(c1ccccc1)(c1ccccc1)c1ccccc1
inactive: dose: 6.25 mg/kg/injection, schedule: Q01DX009 (ip), vehicle: saline with Tween-80 97 % of control | dose: 6.25 mg/kg/injection, schedule: Q04DX003 (ip), vehicle: saline with Tween-80 98 % of control | dose: 12.5 mg/kg/injection, schedule: Q01DX009 (ip), vehicle: saline with Tween-80 103 % of control | dose: 12.5 mg/kg/injection, schedule: Q04DX003 (ip), vehicle: saline with Tween-80 101 % of control | dose: 25.0 mg/kg/injection, schedule: Q01DX009 (ip), vehicle: saline with Tween-80 97 % of control and 94 % of control | dose: 25.0 mg/kg/injection, schedule: Q04DX003 (ip), vehicle: saline with Tween-80 95 % of control | [7] 95 % of control | [8] 100 % of control | [4] 97 % of control

C/C(=C/Cc1c(O)c(C)c2c(c1O)C(=O)OC2)CCC(=O)NCCc1ccccc1
inactive: [11] 87 % of control | [12] 87 % of control | [13] 96 % of control

CC(=O)N1c2ccc(Br)cc2C(=O)C1C (configuration not stated)
inactive: dose: 100.0 mg/kg/injection, schedule: Q01DX001 (ip), vehicle: other 98 % of control | dose: 200.0 mg/kg/injection, schedule: Q01DX001 (ip), vehicle: other 104 % of control | dose: 400.0 mg/kg/injection, schedule: Q01DX001 (ip), vehicle: other 95 % of control

O/N=C1\C=C2C/C(=N/O)C=C2C1
inactive: [7] 100 % of control | [8] 96 % of control | dose: 200.0 mg/kg/injection, schedule: Q01DX009 (ip), vehicle: saline with Tween-80 96 % of control

CC(=O)Nc1ccc(S(=O)(=O)OCCCl)cc1
inactive: [4] 96 % of control | [5] 110 % of control | [6] 102 % of control

CN(C)C=Nc1cnc2ccccc2c1
inactive: [4] 95 % of control | [5] 95 % of control | [6] 96 % of control

Nc1nc(Nc2ccc(C(=O)O)cc2)n[nH]1
inactive: dose: 100.0 mg/kg/injection, schedule: Q01DX001 (ip), vehicle: saline sonified 96 % of control | dose: 100.0 mg/kg/injection, schedule: Q01DX009 (ip), vehicle: saline sonified 105 % of control | dose: 200.0 mg/kg/injection, schedule: Q01DX001 (ip), vehicle: saline sonified 104 % of control | dose: 200.0 mg/kg/injection, schedule: Q01DX009 (ip), vehicle: saline sonified 96 % of control | dose: 400.0 mg/kg/injection, schedule: Q01DX001 (ip), vehicle: saline sonified 96 % of control | dose: 400.0 mg/kg/injection, schedule: Q01DX009 (ip), vehicle: saline sonified 88 % of control

Cc1c(F)cccc1NC(=O)OC(C)C
inactive: [11] 97 % of control | [12] 102 % of control | [13] 94 % of control
